Assays:
[1] = tested on: human colorectal cancer cell lines (HCT-116 and HT-29); experiment: Lactate level in cancer cells (lactate assay kit); format: cell-based; conditions: 2.5 mM, medium with 3 mM or 11 mM glucose, vs untreated
Description: The cells cultured in Example 2-1 were cultured again in a medium including 3 mM (low) or 11 mM (normal) glucose. The cultured cells were disrupted by ultrasonication. The concentration of lactate included in the disrupted cells was measured using a lactate assay kit (AbCam, Cambridge, Mass.) (FIG. 3). In this case, cancer cells untreated with calcium lactate were used as control groups.

[2] = tested on: breast cancer cell lines (MCF-7 and MDA-MB231); experiment: Cell migration of breast cancer cell lines; format: cell-based; conditions: 2.5 mM, vs untreated
Description: A colorectal cancer cell line HCT-116 with the cell number of 4×10^5 cells was inoculated into a culture container at the center of which an ibidi culture insert having a thickness of 500 μm was placed, and treated with 2.5 mM calcium lactate and then cultured for 24 hours. Then, the insert was removed and further cultured for 12 hours to analyze migration of the cancer cells to a site where the insert was removed using a JuLi Br, Live cell analyzer (NanoEnTek Inc., South Korea) (FIG. 18). In this case, a colorectal cancer cell line cultured without treating with calcium lactate was used as a control group.
Using the same method as Example 8-1, with breast cancer cell lines (MCF-7 and MDA-MB231) instead of the colorectal cancer cell line, an effect of calcium lactate on migration of the breast cancer cell lines was examined (FIG. 19).

[3] = tested on: human colorectal cancer cell lines (HCT-116 and HT-29); experiment: pH inside and outside cancer cell; format: cell-based; conditions: 2.5 mM
Description: Specifically, with the cells cultured in Example 2-1, an extracellular pH was measured with a pH meter from the medium for the cells treated with calcium lactate and then cultured and an intracellular pH was measured with a pH detection kit (Life Technologies, CA) from the cells treated with calcium lactate and then cultured (FIG. 4). In this case, cancer cells untreated with calcium lactate were used as control groups.

[4] = tested on: colorectal cancer cell (HT-29 or HCT-116); experiment: Tumor volume in animal model treated with radiation and calcium lactate; format: in vivo, mice
Description: A colorectal cancer cell (HT-29 or HCT-116) was subcutaneously implanted into the flank of mice. The mice were bred until the colorectal cancer cell grew to about 5 mm. Then, four groups were set up; a control group untreated with calcium lactate for 30 days, an experimental group 11 (intra tumor, I.T) injected with 2.5 mM calcium lactate, an experimental group 12 (IR) irradiated with radiation of 2 Gy five times using an X-RAD 320 X-ray irradiator (300 kVp) equipped with a 2.0 mm aluminum filter, and an experimental group 13 (CaLa+IR) irradiated with radiation of 2 Gy five times and injected with 2.5 mM calcium lactate at the same time (FIG. 36).
The volumes of colorectal cancer tissues extracted from the mice of the control group or each of the experimental groups set up in Example 11-1 were measured over time and compared with each other (FIGS. 37a and 37b).

[5] = tested on: human liver cancer cell line (Hep3B); experiment: Colony-forming ability, anticancer drug in combination with calcium lactate (6-well plates); format: cell-based; conditions: 2.5 mM calcium lactate alone, vs control
Description: Human liver cancer cell line (Hep3B) with the cell number of 1×10^3 cells were seeded into an RPMI1640 medium in each of 6-well plates. After one day, the medium was replaced with fresh medium and the cells were treated with 2.5 mM calcium lactate or 1 μM, 2.5 μM, and 5 μM Sorafenib alone or treated with various concentrations (1 μM, 2.5 μM, and 5 μM) of Sorafenib in combination with 2.5 mM calcium lactate. Then, the colony-forming abilities of the cells were compared. In this case, a human liver cancer cell line (Hep3B) untreated with any drug was used as a control group (FIGS. 45a and 45b).

PARP = PARP protein expression in HCT-116 treated with calcium lactate, IS, CA alone or in combination; format: cell-based, human; conditions: 5 mM calcium lactate alone, 24 hours
Description: The protein expression levels of PARP expressed in the colorectal cancer cell line were compared (FIG. 9) after a human colorectal cancer cell line (HCT-116) was treated individually or in combination for 24 hours with 5 mM calcium lactate, 5-indane sulfornamide (IS) as an inhibitor of carbonic anhydrase, or cinnamic acid (CA) as an inhibitor of MCT-4 which is a pathway of lactate. In this case, an untreated cancer cell line was used as a control group.

[6] = tested on: human lung cancer cell line (A549); experiment: Colony-forming ability, anticancer drug in combination with calcium lactate (6-well plates); format: cell-based; conditions: 2.5 mM calcium lactate alone, vs control
Description: Human breast cancer cell line (MCF-7) and a human lung cancer cell line (A549) with the cell number of 1×10^3 cells were seeded into an RPMI1640 medium in each of 6-well plates. […]. Then, the colony-forming abilities of the cells were compared. In this case, a human breast cancer cell line (MCF-7) and a human lung cancer cell line (A549) untreated with any drug were used as control groups (FIGS. 42a, 42b, 43a and 43b).
(§1) Human lung cancer cell line (A549) with the cell number of 1×10^3 cells were seeded into an RPMI1640 medium in each of 6-well plates. […]. Then, the colony-forming abilities of the cells were compared. In this case, a human lung cancer cell line (A549) untreated with any drug was used as a control group (FIGS. 44a and 44b).
as §1, with “47a” for “44a”, “47b).” for “44b).”
as §1, with “49a” for “44a”, “49b).” for “44b).”
as §1, with “50a” for “44a”, “50b).” for “44b).”
as §1, with “51a” for “44a”, “51b).” for “44b).”

cancer cell = experiment: Comparison of lactate delivery efficiency to a cancer cell; format: cell-based; conditions: compared with sodium lactate and potassium lactate

## CC(O)C(=O)[O-].CC(O)C(=O)[O-].[Ca+2] (stereo not shown) [calcium lactate]
[1]
  concentration of lactate in cancer cells: increased
[2]
  cell migration (metastatic capacity): relatively low levels of metastasis
[3]; pH detection kit
  intracellular pH: decreased to acidic condition
[3]; pH meter, medium
  extracellular pH: not changed
[4]; 2.5 mM calcium lactate I.T. individually, vs control
  growth of tumor: inhibited
[4]; 2.5 mM calcium lactate in combination with radiation of 2 Gy five times
  growth of tumor: inhibited to the lowest level
[5]
  colony-forming ability: suppressed
PARP
  protein expression levels of PARP: decreased
[6]
  colony-forming ability: suppressed
Cancer cell
  lactate delivery efficiency to a cancer cell: highest lactate delivery efficiency

— patent publication US11413261B2, “Pharmaceutical composition for treating cancer comprising lactate metal salt” (METIMEDI PHARMACEUTICALS CO., LTD, priority 2014, dated 2022)
